Results reported in patent US20240043818A1, “Engineered Cells for Increased Collagen Production” (Northeastern University, priority 2020, published 2024).

Experiments:
[1] = system: baboon liver myofibroblasts; details: cited from earlier work
human dermal fibroblasts = details: cited from earlier work
rat liver M cells = details: concentration in media as low as 1 ng/ml; cited from earlier work
corneal fibroblasts = test: Media additive screening (Phase 1) and full factorial DOE (Phase 2), collagen production by SirCol; assay type: cell-based; details: Phase 1 screening
Protocol: Based on a weighted scoring (Table 13), the seven best additives were selected and were added to the fibroblast media separately in a Phase 1 screening study using concentrations presented in Table 14. […] For this study a three-level design was chosen in order to determine a maxima. This phase of the experiment determined which additives have a statistically significant effect on collagen production and what concentration of each additive has the highest positive impact.
The seven additives also allowed for minimizing the number of plates and maximizing the number of used wells. […] In phase 1 of testing 7 media additives were tested at 3 concentrations with a sample size of 4 for each condition. Additives and concentrations used were determined by the prior research described above. Collagen amount per well was quantified, but cell counts were not performed. Collagen produced per cell was estimated based on the number of cells expected per well. Some groups fell below the SirCol standard curve range of 1-50 ug. These values were represented as 1.00 ug/100 uL and were assigned the lowest rating for efficacy in the resulting trade study.
For the three additives that advanced the highest ranking of each additive was used as the DOE centerpoint. Due to a lack of available stock, ACE low was substituted for ACE medium.
In phase 2 the top performing media additives were fed into a full factorial DOE. The concentrations used were determined by a variety of factors including a trade study, remaining laboratory supplies, and finally the lower cost associated with a lower concentration in a near-tie situation. A near-tie situation was defined by the group as concentrations of the same chemical that scored within 1% total score. […] For acetaldehyde, due to a stock issue the low concentration at 0.2 mM was chosen. For the 100% concentration limit needed to complete construction of the full-factorial DOE plan, each of these values was doubled, which corresponds to the medium conditions from phase 1.

[2] = system: cell types including bovine, mouse, and human; details: cited from earlier work
human lung fibroblasts = details: 100 ng/mL; cited from earlier work
collagen production = details: cited from earlier work
fibroblast migration = details: dose-dependent, 0.25 and 0.5 mM; cited from earlier work
any cell type = details: cited from earlier work
[3] = system: myofibroblasts and fibroblasts; details: 50 mM; cited from earlier work
human chondrocytes = details: cited from earlier work
[4] = added to the culture media in concentrations up to 300 μM

CC(O)C(=O)O (stereo not shown) [Lactate]
collagen production ([1]; 5 mM added to media): statistically significant increase
collagen production (human dermal fibroblasts; 40 mM): decrease collagen production

O=C(O)[C@@H]1CCCN1 [Proline]
maximum increase in collagen production compared to the control value (human dermal fibroblasts; 5-10 mM in media): 200%

TGF-β1: Transforming Growth Factor Beta 1
collagen production versus control (rat liver M cells): unquantified increase

TGF-β
concentration for maximum efficacy (human dermal fibroblasts): 12.5 ng/mL

NC(=O)CC[C@H](N)C(=O)O [glutamine]
maximum benefit for the production of collagen, % of the control (human dermal fibroblasts; at 250 μM): ~300%

CC=O [ACE, Acetaldehyde]
collagen production versus control, single additive (corneal fibroblasts): higher collagen production than the control
levels of collagen produced [1, 4]: increase the levels of collagen
levels of collagen produced (human dermal fibroblasts; [4]): increase the levels of collagen

O=C1O[C@H]([C@@H](O)CO)C(O)=C1O [ASC, Ascorbic acid]
collagen production versus control, single additive (corneal fibroblasts): higher collagen production than the control
production of collagen [2]: beneficial

IGF-1: Insulin-like Growth Factor 1
correlation between level in media and production of collagen (human dermal fibroblasts; manipulation of rat serum applied to media): positive correlation
maximum increase of collagen production from control (human lung fibroblasts): 300%

Cn1c(=O)c2c(ncn2C)n(C)c1=O [caffeine]
effect on collagen production (collagen production; concentrations in media as little as 1-5 mM): negative effect

N#CCCN [BAPN, β-aminopropionitrile]
collagen production versus control, single additive (corneal fibroblasts): higher collagen production than the control
fibroblast migration (fibroblast migration): inhibited fibroblast migration
adverse effects on cell viability, collagen synthesis, or non collagen protein synthesis (any cell type): No research with any cell type has shown adverse effects

CCO [ethanol]
effect on the level of collagen production [3]: no direct effect

O=C(O)C1CCC=N1 (stereo not shown) [pyrroline-5-carboxylate]
optimal concentration for collagen production (human dermal fibroblasts): 1 mM
time at which the effect on collagen production can be seen (human dermal fibroblasts): 6 h
maximum increase of collagen production, % of the control value (human dermal fibroblasts; optimal concentration of 1 mM): 260%

IL-1p: Interleukin type 1p as printed, glycoprotein associated with immune response
lowest concentration needed for an observable, positive effect on collagen production (human chondrocytes): 2.5 µM

N[C@@H](CCC(=O)O)C(=O)O [Glutamate]
increase of collagen production from the control (human dermal fibroblasts; glutamate-supplemented media): 400%

B1: IL-4: Interleukin, glycoprotein associated with immune response (protein, UniProt P05112 25-153, looked up)
Interleukin-4: HKCDITLQEIIKTLNSLTEQKTLCTELTVTDIFAASKNTTEKETFCRAATVLRQFYSHHEKDTRCLGATAQQFHRHKQLIRFLKRLDRNLWGLAGLNSCPVKEANQSTLENFLERLKTIMREKYSKCSS
maximum positive effect on collagen production, increase from control (collagen production): 250%

B2: IL-10: Interleukin, glycoprotein associated with immune response (protein, UniProt P22301 19-178, looked up)
Interleukin-10: SPGQGTQSENSCTHFPGNLPNMLRDLRDAFSRVKTFFQMKDQLDNLLLKESLLEDFKGYLGCQALSEMIQFYLEEVMPQAENQDPDIKAHVNSLGENLKTLRLRLRRCHRFLPCENKSKAVEQVKNAFNKLQEKGIYKAMSEFDIFINYIEAYMTMKIRN
effect on level of collagen production (collagen production): reduce the level of collagen production
